Experimental data: ChEMBL document CHEMBL4602617, “Discovery and optimization of heteroaryl piperazines as potent and selective PI3Kδ inhibitors” (Bioorg Med Chem Lett, 2020)

Columns and labels:
[1] = target: Cannabinoid receptor 1 (Homo sapiens) (UniProt P21554); experiment: Inhibition of human CB1 receptor at 10 uM relative to control
[2] = target: Dual specificity tyrosine-phosphorylation-regulated kinase 1B (Homo sapiens, UniProt Q9Y463); experiment: Inhibition of recombinant full length human GST-tagged DYRK1B expressed in baculovirus expression system using serine/threonine-18 peptide as substrate incubated for 60 mins in presence of ATP by Z'-LYTE assay
Ephrin type-B receptor 1 = Ephrin type-B receptor 1 (Homo sapiens, UniProt P54762); experiment: Inhibition of recombinant human GST-tagged EPHB1 catalytic domain expressed in baculovirus expression system using tyrosine-2 peptide as substrate incubated for 60 mins in presence of ATP by Z'-LYTE assay
Sequence of Ephrin type-B receptor 1 (P54762 whole entry, the tested form may be a part): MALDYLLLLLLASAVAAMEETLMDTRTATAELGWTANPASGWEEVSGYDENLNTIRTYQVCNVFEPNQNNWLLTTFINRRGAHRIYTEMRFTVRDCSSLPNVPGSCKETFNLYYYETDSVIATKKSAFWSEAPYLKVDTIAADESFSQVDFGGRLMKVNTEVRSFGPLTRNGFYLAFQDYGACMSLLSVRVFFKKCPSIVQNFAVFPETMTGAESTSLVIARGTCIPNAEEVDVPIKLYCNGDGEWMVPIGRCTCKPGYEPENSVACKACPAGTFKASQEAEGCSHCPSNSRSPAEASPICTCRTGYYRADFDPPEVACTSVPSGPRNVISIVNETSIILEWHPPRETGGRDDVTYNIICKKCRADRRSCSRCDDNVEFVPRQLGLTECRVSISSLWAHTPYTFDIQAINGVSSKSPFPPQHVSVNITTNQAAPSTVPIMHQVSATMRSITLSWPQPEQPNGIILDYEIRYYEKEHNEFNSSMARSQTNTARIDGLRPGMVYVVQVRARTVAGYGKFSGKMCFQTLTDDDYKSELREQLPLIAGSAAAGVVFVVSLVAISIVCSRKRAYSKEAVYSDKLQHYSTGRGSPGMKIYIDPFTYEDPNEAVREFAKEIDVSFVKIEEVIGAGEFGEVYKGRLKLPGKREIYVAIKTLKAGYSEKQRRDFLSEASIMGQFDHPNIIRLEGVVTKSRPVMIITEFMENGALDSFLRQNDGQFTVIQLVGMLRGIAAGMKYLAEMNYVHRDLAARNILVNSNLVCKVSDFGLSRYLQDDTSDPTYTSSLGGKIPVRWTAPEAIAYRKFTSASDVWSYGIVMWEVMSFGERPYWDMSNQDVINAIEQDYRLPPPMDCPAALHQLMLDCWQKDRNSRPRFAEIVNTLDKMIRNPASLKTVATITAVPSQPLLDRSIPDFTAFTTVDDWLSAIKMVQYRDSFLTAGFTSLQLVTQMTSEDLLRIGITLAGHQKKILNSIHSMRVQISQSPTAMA

SRSF protein kinase 1 = SRSF protein kinase 1 (Homo sapiens, UniProt Q96SB4); experiment: Inhibition of recombinant full length human His-tagged SRPK1 expressed in baculovirus expression system using serine/threonine-18 peptide as substrate incubated for 60 mins in presence of ATP by Z'-LYTE assay
Sequence of SRSF protein kinase 1 (Q96SB4 whole entry): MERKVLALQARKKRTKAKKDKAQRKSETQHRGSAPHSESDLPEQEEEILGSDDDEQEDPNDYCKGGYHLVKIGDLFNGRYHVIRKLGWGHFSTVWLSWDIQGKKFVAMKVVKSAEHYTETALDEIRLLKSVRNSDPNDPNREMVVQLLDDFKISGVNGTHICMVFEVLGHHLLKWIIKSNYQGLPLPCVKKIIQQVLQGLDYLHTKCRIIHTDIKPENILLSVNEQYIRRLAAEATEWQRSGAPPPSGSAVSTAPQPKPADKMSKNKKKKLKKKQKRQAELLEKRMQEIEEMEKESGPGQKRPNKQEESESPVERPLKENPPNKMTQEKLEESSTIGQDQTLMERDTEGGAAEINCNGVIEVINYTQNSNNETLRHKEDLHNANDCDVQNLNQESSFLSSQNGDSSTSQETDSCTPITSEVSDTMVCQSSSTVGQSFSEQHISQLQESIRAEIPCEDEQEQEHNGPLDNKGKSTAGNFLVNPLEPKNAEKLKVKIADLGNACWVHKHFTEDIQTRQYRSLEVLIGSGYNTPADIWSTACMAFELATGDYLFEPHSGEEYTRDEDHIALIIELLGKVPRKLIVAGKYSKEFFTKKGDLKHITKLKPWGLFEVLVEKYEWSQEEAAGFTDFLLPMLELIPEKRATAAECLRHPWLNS

[3] = target: MAP kinase-interacting serine/threonine-protein kinase 1 (Homo sapiens, UniProt Q9BUB5); experiment: Inhibition of recombinant full length human GST-tagged MKNK1 expressed in insect cells using serine/threonine-7 peptide as substrate incubated for 60 mins in presence of ATP by Z'-LYTE assay
Sequence of MAP kinase-interacting serine/threonine-protein kinase 1 (Q9BUB5 whole entry): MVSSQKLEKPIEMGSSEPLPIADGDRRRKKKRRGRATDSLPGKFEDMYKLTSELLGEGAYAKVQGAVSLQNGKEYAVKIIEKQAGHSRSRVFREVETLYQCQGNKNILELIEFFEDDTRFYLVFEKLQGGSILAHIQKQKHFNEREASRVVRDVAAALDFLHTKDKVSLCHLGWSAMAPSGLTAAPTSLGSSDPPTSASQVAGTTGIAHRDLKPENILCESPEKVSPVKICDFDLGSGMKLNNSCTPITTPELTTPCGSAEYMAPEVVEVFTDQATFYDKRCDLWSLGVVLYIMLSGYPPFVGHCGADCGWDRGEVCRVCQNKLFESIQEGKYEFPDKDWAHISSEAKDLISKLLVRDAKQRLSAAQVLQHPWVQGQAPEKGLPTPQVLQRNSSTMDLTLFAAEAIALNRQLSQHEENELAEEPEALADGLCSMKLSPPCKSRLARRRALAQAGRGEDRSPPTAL

[4] = target: 5-hydroxytryptamine receptor 2C (Homo sapiens) (UniProt P28335); experiment: Displacement of [3H]mesulergine from human recombinant 5HT2C receptor expressed in CHOK1 cells at 10 uM incubated for 60 mins by radiometric scintillation assay relative to control; assay type: cell-based; details: CHO-K1
[5] = target: Serine/threonine-protein kinase Nek2 (Homo sapiens, UniProt P51955); experiment: Inhibition of recombinant full length human His-tagged NEK2 expressed in baculovirus expression system using serine/threonine-7 peptide as substrate incubated for 60 mins in presence of ATP by Z'-LYTE assay
[6] = target: Tyrosine-protein kinase SYK (Homo sapiens, UniProt P43405); experiment: Inhibition of recombinant full length human GST-tagged SYK expressed in baculovirus expression system using tyrosine-2 peptide as substrate incubated for 60 mins in presence of ATP by Z'-LYTE assay
[7] = target: Serine/threonine-protein kinase BRSK1 (Homo sapiens, UniProt Q8TDC3); experiment: Inhibition of recombinant GST-tagged human BRSK1 expressed in baculovirus expression system using Ser/Thr-21 as substrate after 1 hr in presence of ATP by Z'-LYTE assay
Sequence of Serine/threonine-protein kinase BRSK1 (Q8TDC3 whole entry): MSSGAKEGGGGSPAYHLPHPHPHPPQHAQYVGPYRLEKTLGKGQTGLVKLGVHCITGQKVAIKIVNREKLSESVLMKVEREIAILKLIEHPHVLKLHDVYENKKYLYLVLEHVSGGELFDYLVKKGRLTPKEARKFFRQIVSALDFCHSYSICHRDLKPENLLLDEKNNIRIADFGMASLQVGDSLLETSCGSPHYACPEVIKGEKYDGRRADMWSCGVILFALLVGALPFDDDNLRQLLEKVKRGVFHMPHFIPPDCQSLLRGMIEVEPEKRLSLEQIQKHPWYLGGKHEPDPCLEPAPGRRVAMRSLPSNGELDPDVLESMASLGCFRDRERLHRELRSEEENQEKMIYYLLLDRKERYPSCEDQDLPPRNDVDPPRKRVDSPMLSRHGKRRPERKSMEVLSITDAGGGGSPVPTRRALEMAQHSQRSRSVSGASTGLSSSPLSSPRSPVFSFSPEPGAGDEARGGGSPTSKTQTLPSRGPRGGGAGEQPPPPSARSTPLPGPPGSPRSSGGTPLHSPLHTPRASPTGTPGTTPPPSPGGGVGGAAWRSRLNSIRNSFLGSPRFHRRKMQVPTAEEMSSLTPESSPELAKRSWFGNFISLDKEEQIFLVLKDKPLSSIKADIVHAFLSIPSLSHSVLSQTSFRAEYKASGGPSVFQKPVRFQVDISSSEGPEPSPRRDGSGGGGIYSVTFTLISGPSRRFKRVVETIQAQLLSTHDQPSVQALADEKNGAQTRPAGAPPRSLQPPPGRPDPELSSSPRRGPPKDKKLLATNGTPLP

[8] = target: Tyrosine-protein kinase CSK (Homo sapiens, UniProt P41240); experiment: Inhibition of recombinant full length human His-tagged CSK expressed in Escherichia coli expression system using tyrosine-2 peptide as substrate incubated for 60 mins in presence of ATP by Z'-LYTE assay
Sequence of Tyrosine-protein kinase CSK (P41240 whole entry): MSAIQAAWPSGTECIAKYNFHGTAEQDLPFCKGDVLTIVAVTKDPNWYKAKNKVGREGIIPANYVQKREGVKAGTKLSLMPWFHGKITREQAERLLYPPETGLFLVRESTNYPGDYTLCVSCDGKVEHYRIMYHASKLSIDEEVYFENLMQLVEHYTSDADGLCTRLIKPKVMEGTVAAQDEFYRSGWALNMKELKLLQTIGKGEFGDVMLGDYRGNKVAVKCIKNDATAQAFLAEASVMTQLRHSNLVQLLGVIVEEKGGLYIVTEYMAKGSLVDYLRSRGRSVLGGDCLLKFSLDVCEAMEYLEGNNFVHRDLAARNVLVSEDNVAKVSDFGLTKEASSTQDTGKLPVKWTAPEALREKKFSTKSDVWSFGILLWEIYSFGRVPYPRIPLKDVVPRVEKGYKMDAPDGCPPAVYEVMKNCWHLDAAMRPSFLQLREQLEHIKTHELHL

[9] = target: Muscarinic acetylcholine receptor M1 (Homo sapiens) (UniProt P11229); experiment: Displacement of [3H]N-Methylscopolamine from full length human recombinant Muscarinic M1 receptor expressed in CHOK1 cells at 10 uM measured after 120 mins by radiometric scintillation analysis relative to control; assay type: cell-based; details: CHO-K1
Caspase-9 (Homo sapiens) = Caspase-9 (Homo sapiens) (UniProt P55211); experiment: Inhibition of recombinant human caspase 9 expressed in Escherichia coli at 10 uM using Ac-LEHD-AFC as substrate after 60 mins by spectrophotometric analysis relative to control
Sequence of Caspase-9 (Homo sapiens) (P55211 1-315 limits assumed): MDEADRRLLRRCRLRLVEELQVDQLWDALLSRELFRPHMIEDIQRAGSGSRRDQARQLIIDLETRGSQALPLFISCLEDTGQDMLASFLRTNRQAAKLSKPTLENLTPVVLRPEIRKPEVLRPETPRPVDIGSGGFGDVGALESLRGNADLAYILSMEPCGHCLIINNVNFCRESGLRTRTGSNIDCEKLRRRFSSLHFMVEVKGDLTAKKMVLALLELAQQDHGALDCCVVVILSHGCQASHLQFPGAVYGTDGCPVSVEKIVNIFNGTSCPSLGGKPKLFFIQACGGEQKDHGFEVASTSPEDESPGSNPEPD
Sequence of Caspase-9 (Homo sapiens) (P55211 331-416 limits assumed): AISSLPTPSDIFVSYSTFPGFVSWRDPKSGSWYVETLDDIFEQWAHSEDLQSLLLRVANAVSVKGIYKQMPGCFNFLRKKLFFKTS

[10] = target: Phosphatidylinositol 4-kinase beta (Homo sapiens, UniProt Q9UBF8); experiment: Inhibition of recombinant full length human GST-tagged PI4KB expressed in baculovirus expression system using PI lipid as substrate incubated for 60 mins in presence of ATP by Adapta assay
Ephrin type-A receptor 1 = Ephrin type-A receptor 1 (Homo sapiens, UniProt P21709); experiment: Inhibition of recombinant human GST-tagged EPHA1 cytoplasmic domain (568 to 976 residues) expressed in baculovirus expression system using Tyr 02 as substrate after 1 hr in presence of ATP by Z'LYTE assay
[11] = target: Serine/threonine-protein kinase MRCK alpha (Homo sapiens, UniProt Q5VT25); experiment: Inhibition of recombinant human His-tagged MRCKalpha catalytic domain (1 to 473 residues) expressed in baculovirus expression system using serine/threonine-13 peptide as substrate incubated for 60 mins in presence of ATP by Z'-LYTE assay
[12] = target: Calcitonin gene-related peptide type 1 receptor (Homo sapiens) (UniProt Q16602); experiment: Inhibition of human AM1 receptor at 10 uM relative to control
[13] = target: Death-associated protein kinase 3 (Homo sapiens, UniProt O43293); experiment: Inhibition of recombinant human full-length GST-tagged DAPK3 expressed in baculovirus expression system using FRET-labeled Ser/Thr 13 peptide as substrate measured after 1 hr in presence of ATP by Z'-lyte assay
[14] = target: Serine/threonine-protein kinase PLK3 (Homo sapiens, UniProt Q9H4B4); experiment: Inhibition of recombinant human GST-tagged PLK3 catalytic domain (58 to 340 residues) expressed in baculovirus expression system using serine/threonine-16 peptide as substrate incubated for 60 mins in presence of ATP by Z'-LYTE assay
[15] = target: RAC-beta serine/threonine-protein kinase (Homo sapiens, UniProt P31751); experiment: Inhibition of recombinant full length human His-tagged AKT2 expressed in baculovirus expression system using Ser/Thr-06 peptide as substrate incubated for 60 mins in presence of ATP by Z'-LYTE assay
[16] = target: Dual specificity tyrosine-phosphorylation-regulated kinase 4 (Homo sapiens, UniProt Q9NR20); experiment: Inhibition of recombinant full length human GST-tagged DYRK4 expressed in baculovirus expression system using serine/threonine-9 peptide as substrate incubated for 60 mins in presence of ATP by Z'-LYTE assay
[17] = target: Neurotensin receptor type 1 (Homo sapiens) (UniProt P30989); experiment: Displacement of [125I]neurotensin from NT1 receptor in human HEK293 EBNA cell membranes at 10 uM measured after 45 mins by radiometric scintillation analysis relative to control
Sequence of Neurotensin receptor type 1 (Homo sapiens) (P30989 whole entry, the tested form may be a part): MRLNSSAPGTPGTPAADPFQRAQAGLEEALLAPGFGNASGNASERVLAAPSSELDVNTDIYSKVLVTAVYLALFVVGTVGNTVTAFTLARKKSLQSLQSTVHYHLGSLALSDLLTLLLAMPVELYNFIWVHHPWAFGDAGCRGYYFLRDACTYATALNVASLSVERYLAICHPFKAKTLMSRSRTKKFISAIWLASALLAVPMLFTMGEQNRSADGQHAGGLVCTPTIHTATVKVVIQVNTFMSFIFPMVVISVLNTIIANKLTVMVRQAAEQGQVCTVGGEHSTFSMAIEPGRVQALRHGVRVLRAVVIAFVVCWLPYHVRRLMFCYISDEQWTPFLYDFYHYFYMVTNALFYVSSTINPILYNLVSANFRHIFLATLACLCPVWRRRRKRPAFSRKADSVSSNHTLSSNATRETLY

[18] = target: High affinity nerve growth factor receptor (Homo sapiens, UniProt P04629); experiment: Inhibition of recombinant human His-tagged NTRK1 cytoplasmic domain expressed in baculovirus expression system using FRET-labeled tyr 07 peptide as substrate measured after 1 hr in presence of ATP by Z'-lyte assay
Rattus norvegicus = organism: Rattus norvegicus; experiment: Displacement of [3H]CGP-54626 from GABAB in Wistar rat whole brain at 10 uM incubated for 20 mins by radiometric scintillation analysis relative to control; assay type: tissue-based
[19] = target: Estrogen receptor (Homo sapiens) (UniProt P03372); experiment: Displacement of [3H]estradiol from recombinant full length human recombinant ERalpha receptor expressed in Sf9 insect cells at 10 uMmeasured after 120 mins by radiometric scintillation analysis relative to control; details: 10 uM
Sequence of Estrogen receptor (Homo sapiens) (P03372 whole entry): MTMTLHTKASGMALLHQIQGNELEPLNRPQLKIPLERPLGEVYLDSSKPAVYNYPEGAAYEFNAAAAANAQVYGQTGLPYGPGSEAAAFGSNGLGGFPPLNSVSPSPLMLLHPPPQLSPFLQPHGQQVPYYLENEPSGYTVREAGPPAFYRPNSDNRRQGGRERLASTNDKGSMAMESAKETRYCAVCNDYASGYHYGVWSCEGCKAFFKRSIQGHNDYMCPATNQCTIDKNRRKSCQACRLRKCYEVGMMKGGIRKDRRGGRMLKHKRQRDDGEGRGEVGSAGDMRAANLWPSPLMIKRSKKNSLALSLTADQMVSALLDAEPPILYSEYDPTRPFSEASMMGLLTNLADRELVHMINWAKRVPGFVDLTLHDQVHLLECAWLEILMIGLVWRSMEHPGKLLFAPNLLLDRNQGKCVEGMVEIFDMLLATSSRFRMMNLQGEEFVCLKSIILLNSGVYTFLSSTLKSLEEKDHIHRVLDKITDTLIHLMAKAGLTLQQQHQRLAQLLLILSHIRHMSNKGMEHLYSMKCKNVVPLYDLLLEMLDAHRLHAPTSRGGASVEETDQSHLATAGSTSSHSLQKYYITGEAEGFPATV

[20] = target: Serine/threonine-protein kinase 26 (Homo sapiens, UniProt Q9P289); experiment: Inhibition of recombinant full length human GST-tagged MST4 expressed in baculovirus expression system using serine/threonine-7 peptide as substrate incubated for 60 mins in presence of ATP by Z'-LYTE assay
[21] = target: 5-hydroxytryptamine receptor 1A (Homo sapiens) (UniProt P08908); experiment: Displacement of [3H]-8-OH-DPAT from full length human recombinant 5HT1A receptor expressed in CHOK-1 cells at 10 uM measured after 60 mins by radiometric scintillation analysis relative to control; assay type: cell-based

For C[C@@H]1C[C@H]1C(=O)N1CCN(c2cnc(C#N)c(-c3cnn(C)c3)n2)C[C@H]1C, the inhibition [1] was -1%, the IC50 [2] was over 100 µM and the IC50 (Ephrin type-B receptor 1) was 37.7 µM. For the same compound, the IC50 (SRSF protein kinase 1) was over 100 µM, the IC50 [3] was over 100 µM and the inhibition [4] was 13%. It also gave an IC50 [5] of over 100 µM, an IC50 [6] of over 100 µM and an IC50 [7] of over 100 µM. For the same compound, the IC50 [8] was over 100 µM, the inhibition [9] was -3% and the inhibition (Caspase-9 (Homo sapiens)) was 2%. The IC50 [10] was over 100 µM, the IC50 (Ephrin type-A receptor 1) was 34 µM and the IC50 [11] was over 100 µM. It also gave an inhibition [12] of 10%, an IC50 [13] of over 100 µM and an IC50 [14] of over 100 µM. It also gave an IC50 [15] of over 100 µM, an IC50 [16] of over 100 µM and an inhibition [17] of 1%. For the same compound, the IC50 [18] was over 100 µM, the inhibition (Rattus norvegicus) was -2% and the inhibition [19] was 0%. It also gave an IC50 [20] of over 100 µM and an inhibition [21] of 9%.
